# Measured values from PubChem BioAssay (NCI).
#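 Results reflect a 48-hour exposure of cells in 96-well plates to compound at five concentrations. The concentration for 50% growth inhibition is given as GI50. At the TGI there is no net growth.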
# Test system: A498 renal
# Assay: NCI tumour cell line growth inhibition, 48 h
Structure (SMILES),GI50 [µM],TGI [µM]
O=[N+]([O-])c1ccc(C=C2C(Cl)=C(Cl)C(Cl)=C2Cl)cc1,5.13,26.6
COc1ccccc1C1C(C(=O)O)=C(CO)Oc2cc3c(cc21)OCO3 (stereo not given),,> 100
Cc1ccc2c(n1)C(=O)c1[nH]c3ccccc3c1C2=O,1.38,2.76
O=C(OC(=O)n1ccc2ccccc21)n1ccc2ccccc21,,> 100
C=CC(Br)(CBr)CCC(Cl)C(C)C (stereo not given),,27
Cc1nc(N)sc1-c1ccnc(Nc2ccc(N3CCOCC3)cc2)n1,0.731,2.07
CC(=O)Oc1cccc2c(/C=N/NC(N)=S)ncc(C)c12,,29.2
CC(=O)OC1CCC2(C)C3CCC4(C)C(c5ccc(=O)oc5)CC5OC54C3CCC2(O)C1 (stereo not given),,15.1
Cc1ccc(S(=O)(=O)Oc2cc(-c3ccccc3)nc3ccccc23)cc1,,9.62
NNC(N)Nc1ccccc1 (stereo not given),,> 100
CC1CC=CC(O)C1 (stereo not given),,> 100
c1ccc(N=C2SC(=NC3CCCCC3)N(C3CCCCC3)C2=Nc2ccccc2)cc1,,> 100
O=NN(CCCl)C(=O)NC1CCSc2ccccc21 (stereo not given),,> 100

# Test system: HOP-62 NSCLC
# Assay: NCI tumour cell line growth inhibition, 48 h
Structure (SMILES),GI50 [µM],TGI [µM]
O=[N+]([O-])c1ccc(C=C2C(Cl)=C(Cl)C(Cl)=C2Cl)cc1,1.96,4.38
O=C(OC(=O)n1ccc2ccccc21)n1ccc2ccccc21,,> 100
C=CC(Br)(CBr)CCC(Cl)C(C)C (stereo not given),,3.2
Cc1nc(N)sc1-c1ccnc(Nc2ccc(N3CCOCC3)cc2)n1,1.87,60.3
CC(=O)Oc1cccc2c(/C=N/NC(N)=S)ncc(C)c12,,14.6
CC(=O)OC1CCC2(C)C3CCC4(C)C(c5ccc(=O)oc5)CC5OC54C3CCC2(O)C1 (stereo not given),,3.41
Cc1cc(=O)[nH]c(NN2C(Cl)C(=O)C2c2cccc(O)c2)n1 (stereo not given),,> 100
Cc1ccc(S(=O)(=O)Oc2cc(-c3ccccc3)nc3ccccc23)cc1,,18.8
NNC(N)Nc1ccccc1 (stereo not given),,> 100
CC1CC=CC(O)C1 (stereo not given),,> 100
c1ccc(N=C2SC(=NC3CCCCC3)N(C3CCCCC3)C2=Nc2ccccc2)cc1,,> 100
O=NN(CCCl)C(=O)NC1CCSc2ccccc21 (stereo not given),,> 100

# Test system: MALME-3M melanoma
# Assay: NCI tumour cell line growth inhibition, 48 h
Structure (SMILES),GI50 [µM],TGI [µM]
O=[N+]([O-])c1ccc(C=C2C(Cl)=C(Cl)C(Cl)=C2Cl)cc1,2.59,9.26
COc1ccccc1C1C(C(=O)O)=C(CO)Oc2cc3c(cc21)OCO3 (stereo not given),,> 100
Cc1ccc2c(n1)C(=O)c1[nH]c3ccccc3c1C2=O,0.208,1.07
C=CC(Br)(CBr)CCC(Cl)C(C)C (stereo not given),,3.71
Cc1nc(N)sc1-c1ccnc(Nc2ccc(N3CCOCC3)cc2)n1,,> 65
CC(=O)Oc1cccc2c(/C=N/NC(N)=S)ncc(C)c12,,42.7
CC(=O)OC1CCC2(C)C3CCC4(C)C(c5ccc(=O)oc5)CC5OC54C3CCC2(O)C1 (stereo not given),,3.21
Cc1ccc(S(=O)(=O)Oc2cc(-c3ccccc3)nc3ccccc23)cc1,,17.9
NNC(N)Nc1ccccc1 (stereo not given),,> 100
CC1CC=CC(O)C1 (stereo not given),,> 100
c1ccc(N=C2SC(=NC3CCCCC3)N(C3CCCCC3)C2=Nc2ccccc2)cc1,,> 100
O=NN(CCCl)C(=O)NC1CCSc2ccccc21 (stereo not given),,> 100

# Test system: MOLT-4 leukemia
# Assay: NCI tumour cell line growth inhibition, 48 h
Structure (SMILES),GI50 [µM],TGI [µM]
O=[N+]([O-])c1ccc(C=C2C(Cl)=C(Cl)C(Cl)=C2Cl)cc1,3.07,> 100
COc1ccccc1C1C(C(=O)O)=C(CO)Oc2cc3c(cc21)OCO3 (stereo not given),,> 100
Cc1ccc2c(n1)C(=O)c1[nH]c3ccccc3c1C2=O,3.25,18.9
O=C(OC(=O)n1ccc2ccccc21)n1ccc2ccccc21,,> 100
C=CC(Br)(CBr)CCC(Cl)C(C)C (stereo not given),,4.31
Cc1nc(N)sc1-c1ccnc(Nc2ccc(N3CCOCC3)cc2)n1,0.497,> 56.1
CC(=O)Oc1cccc2c(/C=N/NC(N)=S)ncc(C)c12,,> 62.8
CC(=O)OC1CCC2(C)C3CCC4(C)C(c5ccc(=O)oc5)CC5OC54C3CCC2(O)C1 (stereo not given),,0.934
Cc1cc(=O)[nH]c(NN2C(Cl)C(=O)C2c2cccc(O)c2)n1 (stereo not given),,> 100
Cc1ccc(S(=O)(=O)Oc2cc(-c3ccccc3)nc3ccccc23)cc1,,> 100
NNC(N)Nc1ccccc1 (stereo not given),,> 100
CC1CC=CC(O)C1 (stereo not given),,> 100
c1ccc(N=C2SC(=NC3CCCCC3)N(C3CCCCC3)C2=Nc2ccccc2)cc1,,> 100
O=NN(CCCl)C(=O)NC1CCSc2ccccc21 (stereo not given),,99.1

# Test system: NCI-H226 lung
# Assay: NCI tumour cell line growth inhibition, 48 h
Structure (SMILES),GI50 [µM],TGI [µM]
O=[N+]([O-])c1ccc(C=C2C(Cl)=C(Cl)C(Cl)=C2Cl)cc1,4.31,23
COc1ccccc1C1C(C(=O)O)=C(CO)Oc2cc3c(cc21)OCO3 (stereo not given),,> 100
Cc1ccc2c(n1)C(=O)c1[nH]c3ccccc3c1C2=O,1.36,3.65
O=C(OC(=O)n1ccc2ccccc21)n1ccc2ccccc21,,> 100
C=CC(Br)(CBr)CCC(Cl)C(C)C (stereo not given),,27.7
CC(=O)Oc1cccc2c(/C=N/NC(N)=S)ncc(C)c12,,12.8
CC(=O)OC1CCC2(C)C3CCC4(C)C(c5ccc(=O)oc5)CC5OC54C3CCC2(O)C1 (stereo not given),,25.1
Cc1ccc(S(=O)(=O)Oc2cc(-c3ccccc3)nc3ccccc23)cc1,,26.5
NNC(N)Nc1ccccc1 (stereo not given),,> 100
CC1CC=CC(O)C1 (stereo not given),,> 100
c1ccc(N=C2SC(=NC3CCCCC3)N(C3CCCCC3)C2=Nc2ccccc2)cc1,,> 100
O=NN(CCCl)C(=O)NC1CCSc2ccccc21 (stereo not given),,> 100
